Here are results for 9 molecules from PubChem BioAssay (NCI).

Each structure is given as a SMILES string.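 The compound was tested at five concentrations on cells cultured in 96-well plates, with a 48-hour exposure period. At the TGI there is no net growth.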

Test systems include SNB-75 CNS; NCI-H460 lung; TK-10 renal; HCT-15 colon; MCF7 breast; SW-620 colon; SR leukemia; SNB-19 CNS; T-47D breast; HCC-2998 colon; DU-145 prostate; OVCAR-8 ovarian; UACC-62 melanoma; SK-OV-3 ovarian; BT-549 breast; A549 NSCLC; M14 melanoma.
What all share (assay): NCI-60 cell line screen, 48 h

Consider `N#Cc1cc2c(cc1C#N)/C(=N\c1cccc(N)n1)N=C2Nc1cccc(N)n1`, for which the TGI in the assay on SNB-75 CNS is 76.1 µM; with NCI-H460 lung, over 100 µM; in the assay with TK-10 renal, 68.8 µM; in the assay with HCT-15 colon, 76.5 µM; in the assay on MCF7 breast, over 100 µM; in the assay with SW-620 colon, 60.1 µM. Also, the TGI was over 100 µM in the assay with SR leukemia; over 100 µM in the assay on SNB-19 CNS; over 100 µM in the assay with T-47D breast; 57.5 µM in the assay on HCC-2998 colon; over 100 µM in the assay on DU-145 prostate; over 100 µM with OVCAR-8 ovarian. Also, the TGI was 41 µM in the assay on UACC-62 melanoma; 42.4 µM with SK-OV-3 ovarian; 84.3 µM in the assay with BT-549 breast; over 100 µM in the assay on A549 NSCLC; 34.1 µM in the assay with M14 melanoma.

With `CCCN(CCC)C(=S)N/N=C(/C)c1ccccc1O`, the TGI is 35.4 µM in the assay with SNB-75 CNS; 13.3 µM with NCI-H460 lung; 66.4 µM with TK-10 renal; over 93.2 µM in the assay with HCT-15 colon; over 43.6 µM in the assay on MCF7 breast; over 100 µM with SW-620 colon. The TGI in the assay on SR leukemia is 8.92 µM; in the assay with SNB-19 CNS it was over 100 µM; in the assay with T-47D breast it was over 28.9 µM; in the assay with HCC-2998 colon, over 100 µM; in the assay with DU-145 prostate, over 100 µM; in the assay on OVCAR-8 ovarian, 33 µM. Further, the TGI in the assay on UACC-62 melanoma was 15.1 µM; in the assay on SK-OV-3 ovarian, over 75.5 µM; in the assay on BT-549 breast, 47.9 µM; in the assay with A549 NSCLC it was over 100 µM; in the assay on M14 melanoma it was 18.8 µM.

As to `CNC(=O)N(CCC#N)CCN(C(=O)N(C)C)c1ccccc1`, the TGI in the assay on SNB-75 CNS, in the assay with NCI-H460 lung, in the assay on TK-10 renal, in the assay with HCT-15 colon, with MCF7 breast and in the assay with SW-620 colon was over 100 µM throughout. Moreover, the TGI in the assay with SR leukemia, in the assay on SNB-19 CNS, with T-47D breast, in the assay with HCC-2998 colon, in the assay with DU-145 prostate and in the assay with OVCAR-8 ovarian was over 100 µM each time. Besides, the TGI in the assay on UACC-62 melanoma, with SK-OV-3 ovarian, in the assay on BT-549 breast, in the assay with A549 NSCLC and with M14 melanoma was over 100 µM each time.

Regarding `O=C1c2c(ccc3c2CCC3)CC1Cc1ccc2c(c1)CCC2` (stereo not drawn), the TGI in the assay with SNB-75 CNS was 56 µM; in the assay on NCI-H460 lung, over 100 µM; with TK-10 renal, over 100 µM; with HCT-15 colon, over 100 µM; in the assay with MCF7 breast, 96.6 µM; in the assay on SW-620 colon it was over 100 µM. Besides, the TGI was 30.9 µM in the assay on SR leukemia; over 100 µM with SNB-19 CNS; 27 µM in the assay on T-47D breast; over 100 µM in the assay with HCC-2998 colon; over 100 µM in the assay on DU-145 prostate; over 100 µM with OVCAR-8 ovarian. Also, the TGI in the assay with UACC-62 melanoma was 42.7 µM; with SK-OV-3 ovarian, over 100 µM; with BT-549 breast, over 100 µM; in the assay with A549 NSCLC, over 100 µM; in the assay with M14 melanoma, over 100 µM.

Take `CNCCCNC(=S)Cn1cc(C)c(=O)[nH]c1=O`: the TGI with SNB-75 CNS was over 100 µM; in the assay on NCI-H460 lung it was over 67.3 µM; with TK-10 renal, over 100 µM; in the assay on HCT-15 colon, over 100 µM; with MCF7 breast, over 92.5 µM; with SW-620 colon, over 100 µM. The TGI in the assay with SR leukemia was over 100 µM; in the assay with SNB-19 CNS, over 100 µM; in the assay with T-47D breast it was over 100 µM; with HCC-2998 colon, over 69 µM; with DU-145 prostate, over 80.6 µM; with OVCAR-8 ovarian, over 100 µM. In addition, the TGI in the assay on UACC-62 melanoma was over 63.5 µM; in the assay on SK-OV-3 ovarian, over 85.7 µM; in the assay with BT-549 breast, over 100 µM; in the assay on A549 NSCLC, over 51.3 µM; with M14 melanoma, over 69.6 µM.

Consider `O=[N+]([O-])C1=Cc2cc(Cl)ccc2OC1c1cccc2ccccc12` (stereo not drawn), for which the TGI in the assay on SNB-75 CNS amounted to 1.95 µM; in the assay on NCI-H460 lung, 5.28 µM; in the assay on TK-10 renal, 2.55 µM; in the assay on HCT-15 colon it was 2.95 µM; in the assay with MCF7 breast, 2.16 µM; with SW-620 colon, 0.459 µM. The TGI in the assay on SR leukemia was found to be 2.07 µM; in the assay with SNB-19 CNS it was 3.04 µM; in the assay on T-47D breast, 2.81 µM; in the assay on HCC-2998 colon, 2.25 µM; in the assay on DU-145 prostate it was 4.7 µM; in the assay with OVCAR-8 ovarian, 1.42 µM. Further, the TGI in the assay with UACC-62 melanoma came to 4.97 µM; with SK-OV-3 ovarian it was 4.86 µM; with BT-549 breast, 1.01 µM; with A549 NSCLC it was 3.85 µM; in the assay with M14 melanoma it was 3.66 µM.

For `CC(C)(C)OC(=O)N1CC(CCl)c2ccc(O)cc21` (stereo not drawn), the TGI came out at 3.11 µM with SNB-75 CNS; 10.2 µM in the assay on NCI-H460 lung; 7.47 µM with TK-10 renal; 10 µM in the assay on HCT-15 colon; 5.02 µM in the assay with MCF7 breast; 11 µM in the assay with SW-620 colon. The TGI was over 100 µM in the assay on SR leukemia; 10.6 µM with SNB-19 CNS; 12.7 µM in the assay on T-47D breast; 2.02 µM in the assay with HCC-2998 colon; 5.73 µM in the assay with DU-145 prostate; 11.7 µM in the assay on OVCAR-8 ovarian. Further, the TGI in the assay on UACC-62 melanoma came out at 4.56 µM; with SK-OV-3 ovarian it was 11.8 µM; in the assay on BT-549 breast, 4.61 µM; in the assay on A549 NSCLC, 11.3 µM; in the assay with M14 melanoma it was 3.21 µM.

As to `CC(=O)c1c(SCCN2CCOCC2)n(-c2ccccc2)c(=S)n(-c2ccccc2)c1=O`, the TGI in the assay on SNB-75 CNS was over 55.1 µM; in the assay with NCI-H460 lung it was 60.7 µM; with TK-10 renal, 31.2 µM; with HCT-15 colon it was 48.6 µM; in the assay on MCF7 breast it was 5.31 µM; in the assay on SW-620 colon, 49.9 µM. Besides, the TGI in the assay with SR leukemia is over 100 µM; with SNB-19 CNS it was over 55.2 µM; with T-47D breast, 55.5 µM; in the assay with HCC-2998 colon, 28.5 µM; with DU-145 prostate, 22.7 µM; with OVCAR-8 ovarian, 39.5 µM. The TGI with UACC-62 melanoma was 29.5 µM; in the assay on SK-OV-3 ovarian, over 74.2 µM; in the assay on BT-549 breast it was 43 µM; with A549 NSCLC, over 57.6 µM; in the assay on M14 melanoma, 30.2 µM.

`C=C1C(=O)O[C@H]2C1C[C@@H](O)/C(C)=C/CC[C@@]1(C)O[C@H]21` (stereo partly drawn): the TGI was 34.7 µM in the assay with SNB-75 CNS; over 68.5 µM with NCI-H460 lung; 33.4 µM with TK-10 renal; 58.8 µM in the assay with HCT-15 colon; 35 µM in the assay with MCF7 breast; 17.9 µM in the assay on SW-620 colon. Also, the TGI in the assay on SR leukemia is 44.9 µM; in the assay on SNB-19 CNS it was over 100 µM; in the assay with T-47D breast it was 50 µM; in the assay on HCC-2998 colon it was over 52.6 µM; in the assay on DU-145 prostate it was over 56 µM; with OVCAR-8 ovarian, 45.1 µM. Further, the TGI in the assay on UACC-62 melanoma is over 54.2 µM; in the assay on SK-OV-3 ovarian it was over 82.7 µM; in the assay on BT-549 breast it was over 44.5 µM; in the assay on A549 NSCLC it was over 91 µM; in the assay with M14 melanoma it was 37.4 µM.
